Experimental data taken from patent EP3057951B1, “METHYLENE LINKED QUINOLINYL MODULATORS OF ROR-GAMMA-T” (Janssen Pharmaceutica NV, priority 2013, dated 2015).
Several values for one entry are separate records, joined by “and”; a condition that tells them apart may be missing. Equal entries are not always repeated. Structures can show the parent of a compound that is named as a salt. Where two headings read alike, the source gives them in different places.

Tests used:
[1] = biological target: T1, wild type human RORγt LBD (Homo sapiens, UniProt P51449); test: RORγt (LBD) Reporter Assay (GAL4-luciferase, HEK293T cells); type: cell-based; conditions: for RORγt (LBD) Reporter Assay, % inhibition @ 6 µM: 6 µM compound concentration; for inhibition at 6 µM: HEK-293T, read-out: RORγt (LBD) Reporter Assay, % inhibition @ 6 µM, 6 µM compound concentration
T1 construct: expressed in transfected cells; host or cells: HEK293T
T1 sequence (P51449 258-518): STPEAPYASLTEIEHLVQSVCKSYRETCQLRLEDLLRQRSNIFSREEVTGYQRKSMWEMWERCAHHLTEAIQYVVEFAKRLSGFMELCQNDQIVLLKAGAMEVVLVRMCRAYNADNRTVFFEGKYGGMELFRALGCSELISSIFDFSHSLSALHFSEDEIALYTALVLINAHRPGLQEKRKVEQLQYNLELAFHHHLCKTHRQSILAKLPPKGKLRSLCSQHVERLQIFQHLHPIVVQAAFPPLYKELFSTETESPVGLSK

[2] = biological target: T2, wild type human RORγt ligand binding domain (RORyt LBD) (Homo sapiens, UniProt P51449); test: RORγt ThermoFluor assay (thermal shift, binding affinity KD)
T2 construct: His-tag (N); TurboTEV protease cleavage site (ENLYFQG) (N); made in house; host or cells: E. coli (pHIS1, modified pET vector)
T2 sequence (P51449 258-518): T1 sequence (P51449 258-518)

[3] = HEK293T cells, value after the comma with ∼, > or < could not be included in the average

RORγt (LBD) Reporter Assay, % inhibition @ 6 µM ([1]; 6 µM) [%] | IC50 [1, 3] | Kd [2] [nM] | RORγt (LBD) Reporter Assay, % inhibition @ 6 µM ([1]; HEK293T cells, 6 µM) [%] | IC50 ([1]; HEK293T cells) [nM] | RORγt (LBD) Reporter Assay, % inhibition @ 6 µM [1] [%] | inhibition at 6 µM [1] [%] | inhibition at 6 µM ([1]; HEK293T cells) [%] | Compound
32 | > 6000 nM | 1.2 |  |  |  |  |  | Cn1cncc1C(O)(c1ccc(C(F)(F)F)nc1)c1ccc2nc(C#N)c(Cc3ccc(F)cc3)c(C#N)c2c1 (single isomer, unassigned) [Example 53b, 3-(4-Fluorobenzyl)-6-(hydroxy(1-methyl-1H-imidazol-5-yl)(6-(trifluoromethyl)pyridin-3-yl)methyl)quinoline-2,4-dicarbonitrile]
 |  | 12 | 98 | 47 |  |  |  | COc1nc2ccc(C(O)(c3ccc(F)cc3)c3cncn3C)cc2c(Cl)c1Cc1ccc(-n2cccn2)cc1 (single isomer, unassigned) [Example 160c, (3-(4-(1H-Pyrazol-1-yl)benzyl)-4-chloro-2-methoxyquinolin-6-yl)(4-fluorophenyl)(1-methyl-1H-imidazol-5-yl)methanol]
46 | 170 nM | 3.9 |  |  |  |  |  | COc1nc2ccc(C(O)(c3ccc(F)cc3)C3CCN(C(C)=O)CC3)cc2c(Cl)c1Cc1ccc(F)cc1 (single isomer, unassigned) [Example 51b, 1-(4-((4-Chloro-3-(4-fluorobenzyl)-2-methoxyquinolin-6-yl)(4-fluorophenyl)(hydroxy)methyl)piperidin-1-yl)ethanone]
 | 560 nM | 49 |  |  | 97 |  |  | CC(=O)N1CCC(C(O)(c2cc(C)c3nc(C#N)c(Cc4ccc(-n5cccn5)cc4)c(C#N)c3c2)c2cncn2C)CC1 (single isomer, unassigned) [Example 81c, 3-(4-(1H-Pyrazol-1-yl)benzyl)-6-((1-acetylpiperidin-4-yl)(hydroxy)(1-methyl-1H-imidazol-5-yl)methyl)-8-methylquinoline-2,4-dicarbonitrile]
 | 4.6 nM | 1.5 |  |  |  | 100 |  | COc1nc2ccc(C(O)(c3ccc(C)nc3C)c3cnnn3C)cc2c(Cl)c1Cc1ccc(N(C)C)cc1 (centres unmarked) [Example 24a, (4-Chloro-3-(4-(dimethylamino)benzyl)-2-methoxyquinolin-6-yl)(2,6-dimethylpyridin-3-yl)(1-methyl-1H-1,2,3-triazol-5-yl)methanol]
 |  | 23 | 95 | 77 |  |  |  | Cn1cncc1C(O)(c1ccc(C(F)(F)F)nc1)c1ccc2nc(N3CC(F)(F)C3)c(Cc3ccc(-n4cccn4)cc3)c(Cl)c2c1 (single isomer, unassigned) [Example 135c, {4-Chloro-2-(3,3-difluoroazetidin-1-yl)-3-[4-(1H-pyrazol-1-yl)benzyl]quinolin-6-yl}(1-methyl-1H-imidazol-5-yl)[6-(trifluoromethyl)pyridin-3-yl]methanol]
 |  | 49 |  | 59 |  |  | 112 | COc1nc2ccc(C(O)(c3ccc(F)cc3)c3cncn3C)cc2c(Cl)c1Cc1ccc(-n2cccn2)cc1 (centres unmarked) [Example 160a, (3-(4-(1H-Pyrazol-1-yl)benzyl)-4-chloro-2-methoxyquinolin-6-yl)(4-fluorophenyl)(1-methyl-1H-imidazol-5-yl)methanol]
 | 1.9 nM and < 3 nM | 0.01 |  |  |  | 100 |  | CCc1nc2ccc(C(O)(c3cnnn3C)c3cnc(C)n3C)cc2c(Cl)c1Cc1ccc(C(F)(F)F)cc1 (single isomer, unassigned) [Example 25b, (4-Chloro-2-ethyl-3-(4-(trifluoromethyl)benzyl)quinolin-6-yl)(1,2-dimethyl-1H-imidazol-5-yl)(1-methyl-1H-1,2,3-triazol-5-yl)methanol]
 |  | > 56000 |  | 1000 |  |  |  | CCN(CC)c1nc2ccc(C(O)(c3ccc(Cl)cc3)c3cncn3C)cc2c(C#N)c1Cc1ccc(-n2cccn2)cc1 (single isomer, unassigned) [Example 154c, 3-(4-(1H-pyrazol-1-yl)benzyl)-6-((4-chlorophenyl)(hydroxy)(1-methyl-1H-imidazol-5-yl)methyl)-2-(diethylamino)quinoline4-carbonitrile]
98 | 22 nM | 1.5 |  |  |  |  |  | COc1nc2ccc(C(O)(c3cncn3C)C3CCOCC3)cc2c(Cl)c1Cc1ccc(-n2cccn2)cc1 (single isomer, unassigned) [Example 1c, (3-(4-(1H-Pyrazol-1-yl)benzyl)-4-chloro-2-methoxyquinolin-6-yl)(1-methyl-1H-imidazol-5-yl)(tetrahydro-2H-pyran-4-yl)methanol]
 | 250 nM | 150 |  |  |  | 94 |  | COc1nc2ccc(C(O)(c3ccc(C#N)cc3)c3cncn3C)cc2c(Cl)c1Cc1ccc(C(F)(F)F)nc1 (single isomer, unassigned) [Example 38b, 4-((4-Chloro-2-methoxy-3-((6-(trifluoromethyl)pyridin-3-yl)methyl)quinolin-6-yl)(hydroxy)(1-methyl-1H-imidazol-5-yl)methyl)benzonitrile]
 | > 6000 nM | 590 |  |  |  | 45 |  | CC(=O)N1CCC(C(O)(c2ccccc2)c2ccc3nc(Cl)c(Cc4cncnc4)c(OC(F)F)c3c2)CC1 (racemic) [Example 73a, 1-(4-((2-Chloro-4-(difluoromethoxy)-3-(pyrimidin-5-ylmethyl)quinolin-6-yl)(hydroxy)(phenyl)methyl)piperidin-1-yl)ethanone]
 | 36 nM | 1.8 |  |  |  | 100 |  | COc1nc2ccc(C(O)(c3ccccc3)C3CCN(C(C)=O)CC3)cc2c(Cl)c1Cc1ccc(C(F)(F)F)cc1 (single isomer, unassigned) [Example 69b, 1-(4-((4-Chloro-2-methoxy-3-(4-(trifluoromethyl)benzyl)quinolin-6-yl)(hydroxy)(phenyl)methyl)piperidin-1-yl)ethanone]
 |  | 12 |  | 74 |  |  | 99 | Cc1ccc(C(O)(c2ccc3nc(Cl)c(Cc4ccc(C(F)(F)F)cc4)c(NC4CC4)c3c2)c2cnnn2C)c(C)n1 (centres unmarked) [Example 144a, {2-Chloro-4-(cyclopropylamino)-3-[4-(trifluoromethyl)benzyl]quinolin-6-yl}(2,6-dimethylpyridin-3-yl)(1-methyl-1H-1,2,3-triazol-5-yl)methanol]
74 | ~5000 nM | 2200 |  |  |  |  |  | COc1c(Cc2ccccc2)c(C(F)(F)F)nc2ccc(C(O)(c3ccccn3)c3cncn3C)cc12 (single isomer, unassigned) [Example 98b, (3-Benzyl-4-methoxy-2-(trifluoromethyl)quinolin-6-yl)(1-methyl-1H-imidazol-5-yl)(pyridin-2-yl)methanol]
 |  | 640 |  | 510 |  |  | 94 | Cn1cncc1C(O)(c1ccc2nc(Cl)c(Cc3ccc(-n4cccn4)cc3)c(Cl)c2c1)c1ncccn1 (centres unmarked) [Example 130, {2,4-Dichloro-3-[4-(1H-pyrazol-1-yl)benzyl]quinolin-6-yl}(1-methyl-1H-imidazol-5-yl)pyrimidin-2-ylmethanol.TFA]
 |  | 11000 |  | > 6000 |  |  | 42 | Cc1ccc(C(O)(c2ccc3nc(N4CCC4)c(Cc4ccc(-n5cccn5)cc4)c(Cl)c3c2)c2cnnn2C)c(C)n1 (centres unmarked) [Example 141a, {2-Azetidin-1-yl-4-chloro-3-[4-(1H-pyrazol-1-yl)benzyl]quinolin-6-yl}(2,6-dimethylpyridin-3-yl)(1-methyl-1H-1,2,3-triazol-5-yl)methanol]
 |  | 1200 | 96 | 1100 |  |  |  | Cn1cncc1C(O)(c1ccc(C(F)(F)F)nc1)c1ccc2nc(N3CC(O)C3)c(Cc3ccc(-n4cccn4)cc3)c(Cl)c2c1 (single isomer, unassigned) [Example 134c, 1-(4-Chloro-6-{hydroxy(1-methyl-1H-imidazol-5-yl)[6-(trifluoromethyl)pyridin-3-yl]methyl}-3-[4-(1H-pyrazol-1-yl)benzyl]quinolin-2-yl)azetidin-3-ol]
 |  | 21 |  | 57 |  |  | 97 | COc1nc2ccc(C(O)(c3ccc(F)cc3)c3cccnc3)cc2c(Cl)c1Cc1ccc(-n2cccn2)cc1 (centres unmarked) [Example 158a, (3-(4-(1H-Pyrazol-1-yl)benzyl)-4-chloro-2-methoxyquinolin-6-yl)(4-fluorophenyl)(pyridin-3-yl)methanol]
98 | 11 nM | 2 |  |  |  |  |  | COc1nc2ccc(C(O)(c3ccc(C)nc3C)c3cnnn3C)cc2c(Cl)c1Cc1ccc(-n2cncn2)cc1 (single isomer, unassigned) [Example 22c, (3-(4-(1H-1,2,4-Triazol-1-yl)benzyl)-4-chloro-2-methoxyquinolin-6-yl)(2,6-dimethylpyridin-3-yl)(1-methyl-1H-1,2,3-triazol-5-yl)methanol]

Compound | RORγt (LBD) Reporter Assay, % inhibition @ 6 µM ([1]; 6 µM) [%] | IC50 [1, 3] | Kd [2] [nM] | RORγt (LBD) Reporter Assay, % inhibition @ 6 µM ([1]; HEK293T cells, 6 µM) [%] | IC50 ([1]; HEK293T cells) [nM] | RORγt (LBD) Reporter Assay, % inhibition @ 6 µM [1] [%] | inhibition at 6 µM [1] [%] | inhibition at 6 µM ([1]; HEK293T cells) [%]
Cn1cc(-c2nc3ccc(C(O)(c4ccc(C(F)(F)F)nc4)c4cncn4C)cc3c(C#N)c2Cc2ccccc2)cn1 (single isomer, unassigned) [Example 112b, 3-Benzyl-6-(hydroxy(1-methyl-1H-imidazol-5-yl)(6-(trifluoromethyl)pyridin-3-yl)methyl)-2-(1-methyl-1H-pyrazol-4-yl)quinoline-4-carbonitrile] | 92 | 450 nM | 2200 |  |  |  |  | 
